Measured values reported in patent publication US9144239B2, “Macrocyclic picolinamides as fungicides” (DOW AGROSCIENCES LLC, priority 2012, dated 2015).
Like-named read-outs stand apart in the source and are kept apart here. Each block holds one compound with its values, some of them ahead of it.

Assays:
[1] = test system: Mycosphaerella graminicola; anamorph: Septoria tritici; assay: Fungicidal activity: leaf blotch of wheat (SEPTTR), wheat seedlings; format: in vivo; conditions: Zymoseptoria tritici
In short: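 Compounds in acetone were diluted with nine volumes of water containing 110 ppm Triton X-100 and sprayed to run-off on Yuma wheat seedlings at first-leaf stage. Septoria tritici spores were inoculated before or after treatment, followed by dew chambers at 100% RH and 20 °C, then greenhouse at 20 °C. Severity (0–100%) was scored once untreated plants were fully diseased; control was calculated relative to untreated plants.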

[2] = test system: Puccinia triticina; synonym: Puccinia recondita f. sp. tritici; assay: Fungicidal activity: wheat brown rust (PUCCRT), wheat seedlings; format: in vivo
In short: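 Wheat (Yuma) seedlings at first-leaf stage, inoculated with Puccinia triticina spores before or after treatment, held overnight in dark dew room at 22° C, 100% RH, then greenhouse at 24° C. Acetone solutions diluted with nine volumes water containing 110 ppm Triton X-100, sprayed to run-off. Percent disease control derived from severity (0–100%) relative to untreated plants.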

[3] = test system: Puccinia triticina; synonym: Puccinia recondita f. sp. tritici; assay: Fungicide mobility (dropline mobility test): wheat brown rust (PUCCRT); format: in vivo; conditions: 1 ug/leaf
Protocol: Evaluation of Fungicide Mobility: Wheat Brown Rust (Puccinia triticina; Synonym: Puccinia recondita f. sp. tritici; Bayer Code PUCCRT) “Yuma” wheat seedlings were used in the test. One mg of compound was dissolved in 9 μl of EC blank (emulsifiable concentrate) and 500 μl of acetone. Acetone was then evaporated overnight by leaving the vial open in a fume hood. Two milliliters of water containing 110 ppm Triton X-100 was added to each vial to prepare application solutions. A 2 μl drop of formulated material was applied to a marked line on the adaxial surface 5 cm from the leaf tip of the primary leaves. The primary leaves were kept in a horizontal position. Each treatment had 6 replicates. Plants were inoculated with PUCCRT 1-day after (1DPM) or 3-day prior to (3DCM) compound applications. When rust was fully expressed on primary leaves on control plants, the zone of treated leaves that was disease-free in the acropetal direction was measured with a ruler and converted to percent of the distance from marked line to leaf tip.

[4] = 24 h, 100 ppm, 1 Day Protectant, wheat, read-out: Disease Control SEPTTR 1DP
[5] = 72 h, 100 ppm, 3 Day Curative, wheat, read-out: Disease Control SEPTTR 3DC
[6] = 24 h, 100 ppm, 1 Day Protectant, wheat, read-out: Disease Control PUCCRT 1DP
[7] = 72 h, 100 ppm, 3 Day Curative, wheat, read-out: Disease Control PUCCRT 3DC
[8] = 24 h, 1 Day Protectant Mobility, read-out: Dropline Mobility Test PUCCRT 1DPM
[9] = 72 h, 3 Day Curative Mobility, read-out: Dropline Mobility Test PUCCRT 3DCM
[10] = 24 h, read-out: Disease Control SEPTTR 1DP
[11] = 72 h, read-out: Disease Control SEPTTR 3DC
[12] = 24 h, read-out: Disease Control PUCCRT 1DP
[13] = 72 h, read-out: Disease Control PUCCRT 3DC

SMILES: CC(C)CO[C@H]1[C@H](C)OC(=O)[C@@H](N)COC[C@@H]1OCC(C)C [Compound 160, (3S,7S,8S,9S)-3-amino-7,8-diisobutoxy-9-methyl-1,5-dioxonan-2-one]
melting point: 144 to 146 °C

SMILES: Cc1cc(C)cc(O[C@H]2[C@H](C)OC(=O)[C@@H](N)COC[C@@H]2Oc2cc(C)cc(C)c2)c1.Cl
melting point: 212 °C

SMILES: CCCCO[C@H]1COC[C@H](NC(=O)OC(C)(C)C)C(=O)O[C@@H](C)[C@@H]1OC(=O)C(C)C [Compound 113, (3S,6S,7S,8S)-8-butoxy-3-((tert-butoxycarbonyl)amino)-6-methyl-4-oxo-1,5-dioxonan-7-yl isobutyrate]
melting point: 69 to 71 °C

SMILES: COc1ccnc(C(=O)N[C@H]2COC[C@H](OCC(C)C)[C@@H](OCC(C)C)[C@H](C)OC2=O)c1OC(C)=O [Compound 238]
pest or weed control at 100 ppm [1, 4]: 80 to 100%
pest or weed control at 100 ppm [1, 5]: 80 to 100%
pest or weed control at 100 ppm [2, 6]: 80 to 100%
pest or weed control at 100 ppm [2, 7]: 80 to 100%
pest or weed control at 1 µg/leaf [3, 8]: 80 to 100%
pest or weed control at 1 µg/leaf [3, 9]: 80 to 100%

SMILES: CCCCO[C@H]1COC[C@H](NC(=O)c2nccc(OC)c2O)C(=O)O[C@@H](C)[C@@H]1OC(=O)c1ccccc1 [Compound 66]
pest or weed control at 100 ppm [1, 4]: 80 to 100%
pest or weed control at 100 ppm [1, 5]: 0 to 80%
pest or weed control at 100 ppm [2, 6]: 80 to 100%
pest or weed control at 100 ppm [2, 7]: 80 to 100%
pest or weed control at 1 µg/leaf [3, 8]: 0 to 80%
pest or weed control at 1 µg/leaf [3, 9]: 0 to 80%

SMILES: COc1ccnc(C(=O)N[C@H]2COC[C@H](Oc3ccccc3)[C@@H](Oc3ccccc3)[C@H](C)OC2=O)c1OC(C)=O [Compound 236]
pest or weed control at 100 ppm [1, 4]: 80 to 100%
pest or weed control at 100 ppm [1, 5]: 80 to 100%
pest or weed control at 100 ppm [2, 6]: 80 to 100%
pest or weed control at 100 ppm [2, 7]: 80 to 100%
pest or weed control at 1 µg/leaf [3, 8]: 0 to 80%

SMILES: COc1ccnc(C(=O)N[C@H]2CO[C@@H](C)[C@H](OCC(C)C)[C@@H](OCC(C)C)[C@H](C)OC2=O)c1O [Compound 26]
pest or weed control at 100 ppm [1, 4]: 80 to 100%
pest or weed control at 100 ppm [1, 5]: 0 to 80%
pest or weed control at 100 ppm [2, 6]: 80 to 100%
pest or weed control at 100 ppm [2, 7]: 80 to 100%
pest or weed control at 1 µg/leaf [3, 8]: 0 to 80%

SMILES: COc1ccnc(C(=O)N[C@H]2COC[C@H](OC3CCCCC3)[C@@H](OCC(C)C)[C@H](C)OC2=O)c1OCOC(C)=O [Compound 76]
pest or weed control at 100 ppm [1, 4]: 80 to 100%
pest or weed control at 100 ppm [1, 5]: 80 to 100%
pest or weed control at 100 ppm [2, 6]: 80 to 100%
pest or weed control at 100 ppm [2, 7]: 80 to 100%
pest or weed control at 1 µg/leaf [3, 8]: 80 to 100%
pest or weed control at 1 µg/leaf [3, 9]: 0 to 80%

SMILES: CCCCCO[C@H]1[C@H](C)OC(=O)[C@@H](NC(=O)c2nccc(OC)c2O)COC[C@@H]1OCCCCC [Compound 62]
pest or weed control at 100 ppm [1, 5]: 80 to 100%
pest or weed control at 100 ppm [2, 7]: 80 to 100%
pest or weed control at 1 µg/leaf [3, 8]: 0 to 80%

SMILES: CCCO[C@H]1[C@H](C)OC(=O)[C@@H](NC(=O)c2nccc(OC)c2O)COC[C@@H]1OCCC [Compound 58, 3-hydroxy-4-methoxy-N-((3S,7S,8S,9S)-9-methyl-2-oxo-7,8-dipropoxy-1,5-dioxonan-3-yl)picolinamide]
pest or weed control at 100 ppm [1, 10]: 0 to 80%
pest or weed control at 100 ppm [1, 11]: 0 to 80%
pest or weed control at 100 ppm [2, 12]: 80 to 100%
pest or weed control at 100 ppm [2, 13]: 80 to 100%
pest or weed control at 1 µg/leaf [3, 8]: 80 to 100%
pest or weed control at 1 µg/leaf [3, 9]: 0 to 80%

SMILES: COc1ccnc(C(=O)N[C@H]2COC[C@H](Oc3ccccc3)[C@@H](Oc3ccccc3)[C@H](C)OC2=O)c1OCOC(=O)C(C)C [Compound 234]
pest or weed control at 100 ppm [1, 4]: 80 to 100%
pest or weed control at 100 ppm [1, 5]: 80 to 100%
pest or weed control at 100 ppm [2, 6]: 80 to 100%
pest or weed control at 100 ppm [2, 7]: 80 to 100%
pest or weed control at 1 µg/leaf [3, 8]: 80 to 100%

SMILES: COc1ccnc(C(=O)N[C@H]2COC[C@H](OCC(C)C)[C@@H](O)[C@H](C)OC2=O)c1O [Compound 70]
pest or weed control at 100 ppm [1, 4]: 0 to 80%
pest or weed control at 100 ppm [1, 5]: 0 to 80%
pest or weed control at 100 ppm [2, 6]: 0 to 80%
pest or weed control at 100 ppm [2, 7]: 0 to 80%
pest or weed control at 1 µg/leaf [3, 8]: 0 to 80%
pest or weed control at 1 µg/leaf [3, 9]: 0 to 80%

SMILES: COc1ccnc(C(=O)N[C@H]2COC[C@H](Oc3ccccc3)[C@@H](Oc3ccccc3)[C@H](C)OC2=O)c1O [Compound 81, 3-hydroxy-4-methoxy-N-((3S,7S,8S,9S)-9-methyl-2-oxo-7,8-diphenoxy-1,5-dioxonan-3-yl)picolinamide]
pest or weed control at 100 ppm [1, 10]: 80 to 100%
pest or weed control at 100 ppm [1, 11]: 80 to 100%
pest or weed control at 100 ppm [2, 12]: 80 to 100%
pest or weed control at 100 ppm [2, 13]: 80 to 100%
pest or weed control at 1 µg/leaf [3, 8]: 80 to 100%
pest or weed control at 1 µg/leaf [3, 9]: 0 to 80%

SMILES: COc1ccnc(C(=O)N[C@H]2COC[C@H](OCC(C)C)[C@@H](OC3CCCCC3)[C@H](C)OC2=O)c1O [Compound 75]
pest or weed control at 100 ppm [1, 4]: 80 to 100%
pest or weed control at 100 ppm [1, 5]: 0 to 80%
pest or weed control at 100 ppm [2, 6]: 80 to 100%
pest or weed control at 100 ppm [2, 7]: 80 to 100%
pest or weed control at 1 µg/leaf [3, 8]: 0 to 80%
pest or weed control at 1 µg/leaf [3, 9]: 0 to 80%

Other lines, results leading:

melting point: 61 to 70 °C
SMILES: COc1ccnc(C(=O)N[C@H]2COC[C@H](OCCC(C)C)[C@@H](OCCC(C)C)[C@H](C)OC2=O)c1O [Compound 210, N-((3S,7S,8S,9S)-7,8-bis(isopentyloxy)-9-methyl-2-oxo-1,5-dioxonan-3-yl)-3-hydroxy-4-methoxypicolinamide]

melting point: 227 to 229 °C
SMILES: C[C@@H]1OC(=O)[C@@H](N)COC[C@H](Oc2ccccc2)[C@H]1Oc1ccccc1.Cl

melting point: 79 to 81 °C
SMILES: C=C(C)CO[C@H]1[C@H](C)OC[C@H](NC(=O)OCc2ccccc2)C(=O)OC[C@@H]1OCC(=C)C [Compound 127]

melting point: 108 °C
SMILES: CC(C)CO[C@H]1[C@H](C)OC(=O)[C@@H](N(C(=O)OC(C)(C)C)C(=O)OC(C)(C)C)COC[C@@H]1Oc1ccc(F)cc1 [Compound 246]

melting point: 90 to 91 °C
SMILES: C=C(C)CO[C@H]1[C@H](C)OC(=O)[C@@H](NC(=O)OCc2ccccc2)COC[C@@H]1OCC(=C)C [Compound 126, benzyl (3S,7S,8S,9S)-9-methyl-7,8-bis(2-methylallyloxy)-2-oxo-1,5-dioxonan-3-ylcarbamate]

melting point: 66 to 68 °C
SMILES: C=C(C)CO[C@H]1COC[C@H](NC(=O)OCc2ccccc2)C(=O)OC[C@@H]1OCC(=C)C [Compound 186]

melting point: 207 to 208 °C
SMILES: COc1ccc(O[C@H]2[C@H](C)OC(=O)[C@@H](N)COC[C@@H]2OC(=O)C(C)C)cc1.Cl

melting point: 168 to 169 °C
SMILES: CC(C)CO[C@H]1COC[C@H](N)C(=O)O[C@@H](C)[C@@H]1Oc1cccc(Cl)c1.Cl

melting point: 217 to 219 °C
SMILES: CCCO[C@H]1[C@H](C)OC(=O)[C@@H](N)COC[C@@H]1Oc1ccccc1.Cl

melting point: 69 to 71 °C
SMILES: C[C@@H]1OC(=O)[C@@H](NC(=O)OC(C)(C)C)COC[C@H](OCc2ccccc2)[C@H]1OCc1ccccc1 [Compound 93, tert-butyl ((3S,7S,8S,9S)-7,8-bis(benzyloxy)-9-methyl-2-oxo-1,5-dioxonan-3-yl)carbamate]

melting point: 110 to 112 °C
SMILES: C[C@@H]1OC(=O)[C@@H](N(C(=O)OC(C)(C)C)C(=O)OC(C)(C)C)COC[C@H](O)[C@H]1Oc1ccccc1 [Compound 249]

melting point: 108 to 110 °C
SMILES: C=C(C)CO[C@@H]1[C@@H](OCC(=C)C)COC[C@H](NC(=O)OCc2ccccc2)C(=O)O[C@H]1CC [Compound 88, benzyl ((3S,7S,8S,9S)-9-ethyl-7,8-bis((2-methylallyl)oxy)-2-oxo-1,5-dioxonan-3-yl)carbamate]

melting point: 197 to 198 °C
SMILES: COc1ccc(O[C@H]2COC[C@H](N)C(=O)O[C@@H](C)[C@@H]2OC(=O)C(C)C)cc1.Cl

melting point: 197 to 200 °C
SMILES: CC(C)CO[C@H]1[C@H](C)OC(=O)[C@@H](N)COC[C@@H]1Oc1ccc(F)cc1.Cl

melting point: 174 to 177 °C
SMILES: CCCCO[C@H]1COC[C@H](N)C(=O)O[C@@H](C)[C@@H]1OCc1ccccc1.Cl

melting point: 181 to 185 °C
SMILES: C[C@@H]1OC(=O)[C@@H](N)COC[C@H](OCC2CC2)[C@H]1OCC1CC1.Cl

melting point: 213 to 216 °C
SMILES: Cc1ccc(O[C@H]2[C@H](C)OC(=O)[C@@H](N)COC[C@@H]2Oc2ccc(C)cc2)cc1.Cl

melting point: 51 to 54 °C
SMILES: CCCCO[C@H]1[C@H](C)OC(=O)[C@@H](NC(=O)OC(C)(C)C)COC[C@@H]1OCc1ccccc1 [Compound 99]

melting point: 217 to 219 °C
SMILES: C[C@@H]1OC(=O)[C@@H](N)COC[C@H](Oc2ccccc2)[C@H]1OC1CCCC1.Cl
